Assay results published in ChEMBL document CHEMBL1127124, “Selective inactivation of monoamine oxidase B by aminoethyl 3-chlorobenzyl ether” (Bioorg Med Chem Lett, 1993).
pKi: −log10 of the molar value.

Tests used:
[1] = target: T1, Amine oxidase [flavin-containing] A (Bos taurus, UniProt P21398); assay: Tested for enzyme affinity with purified bovine liver MAO A
T1 sequence (P21398 whole entry): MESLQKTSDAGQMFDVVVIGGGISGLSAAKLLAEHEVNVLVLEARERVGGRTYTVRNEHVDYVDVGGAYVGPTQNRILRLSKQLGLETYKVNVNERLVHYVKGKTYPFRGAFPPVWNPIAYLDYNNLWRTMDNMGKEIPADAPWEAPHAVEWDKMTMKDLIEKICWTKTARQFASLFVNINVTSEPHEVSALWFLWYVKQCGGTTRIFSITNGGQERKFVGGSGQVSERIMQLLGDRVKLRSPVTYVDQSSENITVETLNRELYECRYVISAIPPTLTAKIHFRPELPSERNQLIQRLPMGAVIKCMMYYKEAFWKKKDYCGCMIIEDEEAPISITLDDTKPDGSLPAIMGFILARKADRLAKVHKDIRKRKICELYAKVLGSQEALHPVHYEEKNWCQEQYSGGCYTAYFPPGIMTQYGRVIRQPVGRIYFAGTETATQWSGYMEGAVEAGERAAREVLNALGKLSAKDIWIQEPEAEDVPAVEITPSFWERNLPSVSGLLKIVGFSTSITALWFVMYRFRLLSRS

[2] = target: T2, Amine oxidase [flavin-containing] B (Bos taurus, UniProt P56560); assay: Tested for enzyme kinetic activity with purified bovine liver MAO B; conditions: cattle
T2 sequence (P56560 whole entry): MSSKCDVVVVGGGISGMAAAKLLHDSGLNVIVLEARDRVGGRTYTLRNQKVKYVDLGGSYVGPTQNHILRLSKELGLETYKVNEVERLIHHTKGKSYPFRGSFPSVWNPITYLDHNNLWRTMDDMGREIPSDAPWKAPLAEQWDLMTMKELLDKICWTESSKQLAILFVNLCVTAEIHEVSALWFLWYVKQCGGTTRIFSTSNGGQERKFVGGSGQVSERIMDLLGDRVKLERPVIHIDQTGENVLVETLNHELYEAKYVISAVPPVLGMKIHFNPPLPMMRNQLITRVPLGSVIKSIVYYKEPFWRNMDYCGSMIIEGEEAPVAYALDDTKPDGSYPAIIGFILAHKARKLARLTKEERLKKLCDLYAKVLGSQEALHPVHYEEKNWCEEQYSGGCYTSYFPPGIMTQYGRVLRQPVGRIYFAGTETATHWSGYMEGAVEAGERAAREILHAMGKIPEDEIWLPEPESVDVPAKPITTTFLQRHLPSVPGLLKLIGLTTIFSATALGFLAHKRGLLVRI

[3] = target: T1, Amine oxidase [flavin-containing] A; assay: Tested for enzyme kinetic activity with purified bovine liver MAO A; conditions: cattle
[4] = target: T2, Amine oxidase [flavin-containing] B; assay: Tested for enzyme affinity with purified bovine liver MAO B

## NCCOCc1cccc(Cl)c1
[1]
  pKi: 3.47
[2]
  kinact: 0.0117 s⁻¹
[3]
  kinact: 0.000467 s⁻¹
[4]
  pKi: 5.30
